# Reference: patent publication US10206394B2, “Herbicidal compounds” (Syngenta Participations AG, priority 2014, dated 2019)
# Where two headings read alike, the source gives them in different places.
# Experiments:
# Assay in all cases: Glasshouse assay for herbicidal activity (pre- and post-emergence), percentage phytotoxicity
# Assay type in all cases: in vivo
# [1] = test system: Alopecurus myosuroides (ALOMY); conditions: Alopecurus myosuroides
# In short: (§1)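 Potted test plants in standard soil received the compound pre-emergence (day 1) or post-emergence (about day 12). Evaluation: visual damage score from 0% (none) to 100% (total), 15 days after application post-emergence, 20 days pre-emergence.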
# [2] = test system: Echinochloa crus-galli (ECHCG); conditions: Echinochloa crus-galli
# In short: as §1
# Lolium perenne (LOLPE) = conditions: Lolium perenne
# In short: as §1
# Avena fatua (AVEFA) = conditions: Avena fatua
# In short: as §1
# [3] = post-emergence, 360 h, POST-emergence, rate 250 g/ha, visual score 15 DAA (100%=total damage, 0%=no damage), read-out: Post-emergence herbicidal activity (percentage phytotoxicity) ALOMY POST
# [4] = pre-emergence, 480 h, PRE-emergence, rate 250 g/ha, visual score 20 DAA (100%=total damage, 0%=no damage), read-out: Pre-emergence herbicidal activity (percentage phytotoxicity) ALOMY PRE
# [5] = post-emergence, 360 h, POST-emergence, rate 250 g/ha, visual score 15 DAA (100%=total damage, 0%=no damage), read-out: Post-emergence herbicidal activity (percentage phytotoxicity) ECHCG POST
# [6] = pre-emergence, 480 h, PRE-emergence, rate 250 g/ha, visual score 20 DAA (100%=total damage, 0%=no damage), read-out: Pre-emergence herbicidal activity (percentage phytotoxicity) ECHCG PRE
# [7] = post-emergence, 360 h, POST-emergence, rate 250 g/ha, visual score 15 DAA (100%=total damage, 0%=no damage), read-out: Post-emergence herbicidal activity (percentage phytotoxicity) LOLPE POST
# [8] = pre-emergence, 480 h, PRE-emergence, rate 250 g/ha, visual score 20 DAA (100%=total damage, 0%=no damage), read-out: Pre-emergence herbicidal activity (percentage phytotoxicity) LOLPE PRE
# [9] = post-emergence, 360 h, POST-emergence, rate 250 g/ha, visual score 15 DAA (100%=total damage, 0%=no damage), read-out: Post-emergence herbicidal activity (percentage phytotoxicity) AVEFA POST
# [10] = pre-emergence, 480 h, PRE-emergence, rate 250 g/ha, visual score 20 DAA (100%=total damage, 0%=no damage), read-out: Pre-emergence herbicidal activity (percentage phytotoxicity) AVEFA PRE
SMILES,"pest or weed control at 250 g/ha [1, 3]","pest or weed control at 250 g/ha [1, 4]","pest or weed control at 250 g/ha [2, 5]","pest or weed control at 250 g/ha [2, 6]",pest or weed control at 250 g/ha (Lolium perenne (LOLPE); [7]),pest or weed control at 250 g/ha (Lolium perenne (LOLPE); [8]),pest or weed control at 250 g/ha (Avena fatua (AVEFA); [9]),pest or weed control at 250 g/ha (Avena fatua (AVEFA); [10]),also measured
Cc1cc(-c2ncc(F)cn2)cc(C)c1C1C(=O)CC(CC(=O)NCc2ccc(C#N)cc2)C1=O (centres unmarked) [Compound B272],100%,80%,100%,90%,80%,50%,100%,80%,
C=C(C)CNC(=O)CC1CC(=O)C(c2c(C)cc(-c3ncc(Cl)cn3)cc2C)C1=O (centres unmarked) [Compound B341],,,,,,,,,"pest or weed control at 250 g/ha ([1]; post-emergence, 360 h, Rate 250 g/ha, post-emergence, visual assessment 15 DAA, 100%=total damage, 0%=no damage, read-out: Post-emergence herbicidal activity (percentage phytotoxicity) ALOMY POST): 100%; pest or weed control at 250 g/ha ([1]; pre-emergence, 480 h, Rate 250 g/ha, pre-emergence, visual assessment 20 DAA, 100%=total damage, 0%=no damage, read-out: Pre-emergence herbicidal activity (percentage phytotoxicity) ALOMY PRE): 100%; pest or weed control at 250 g/ha ([2]; post-emergence, 360 h, Rate 250 g/ha, post-emergence, visual assessment 15 DAA, 100%=total damage, 0%=no damage, read-out: Post-emergence herbicidal activity (percentage phytotoxicity) ECHCG POST): 100%; pest or weed control at 250 g/ha ([2]; pre-emergence, 480 h, Rate 250 g/ha, pre-emergence, visual assessment 20 DAA, 100%=total damage, 0%=no damage, read-out: Pre-emergence herbicidal activity (percentage phytotoxicity) ECHCG PRE): 100%; pest or weed control at 250 g/ha (Lolium perenne (LOLPE); post-emergence, 360 h, Rate 250 g/ha, post-emergence, visual assessment 15 DAA, 100%=total damage, 0%=no damage, read-out: Post-emergence herbicidal activity (percentage phytotoxicity) LOLPE POST): 100%; pest or weed control at 250 g/ha (Lolium perenne (LOLPE); pre-emergence, 480 h, Rate 250 g/ha, pre-emergence, visual assessment 20 DAA, 100%=total damage, 0%=no damage, read-out: Pre-emergence herbicidal activity (percentage phytotoxicity) LOLPE PRE): 80%; pest or weed control at 250 g/ha (Avena fatua (AVEFA); post-emergence, 360 h, Rate 250 g/ha, post-emergence, visual assessment 15 DAA, 100%=total damage, 0%=no damage, read-out: Post-emergence herbicidal activity (percentage phytotoxicity) AVEFA POST): 100%; pest or weed control at 250 g/ha (Avena fatua (AVEFA); pre-emergence, 480 h, Rate 250 g/ha, pre-emergence, visual assessment 20 DAA, 100%=total damage, 0%=no damage, read-out: Pre-emergence herbicidal activity (percentage phytotoxicity) AVEFA PRE): 80%"
CCc1cc(-n2cc(Cl)cn2)cc(C)c1C1C(=O)CC(CC(=O)NC(C)(C)C)C1=O (centres unmarked) [Compound B135],,,,,,,,,"pest or weed control at 250 g/ha ([1]; post-emergence, 360 h, 250 g/ha, post-emergence, 15 DAA, visual assessment (100%=total damage, 0%=no damage), read-out: Post-emergence herbicidal activity (percentage phytotoxicity) ALOMY POST): 100%; pest or weed control at 250 g/ha ([1]; pre-emergence, 480 h, 250 g/ha, pre-emergence, 20 DAA, visual assessment (100%=total damage, 0%=no damage), read-out: Pre-emergence herbicidal activity (percentage phytotoxicity) ALOMY PRE): 100%; pest or weed control at 250 g/ha ([2]; post-emergence, 360 h, 250 g/ha, post-emergence, 15 DAA, visual assessment (100%=total damage, 0%=no damage), read-out: Post-emergence herbicidal activity (percentage phytotoxicity) ECHCG POST): 100%; pest or weed control at 250 g/ha ([2]; pre-emergence, 480 h, 250 g/ha, pre-emergence, 20 DAA, visual assessment (100%=total damage, 0%=no damage), read-out: Pre-emergence herbicidal activity (percentage phytotoxicity) ECHCG PRE): 100%; pest or weed control at 250 g/ha (Lolium perenne (LOLPE); post-emergence, 360 h, 250 g/ha, post-emergence, 15 DAA, visual assessment (100%=total damage, 0%=no damage), read-out: Post-emergence herbicidal activity (percentage phytotoxicity) LOLPE POST): 100%; pest or weed control at 250 g/ha (Lolium perenne (LOLPE); pre-emergence, 480 h, 250 g/ha, pre-emergence, 20 DAA, visual assessment (100%=total damage, 0%=no damage), read-out: Pre-emergence herbicidal activity (percentage phytotoxicity) LOLPE PRE): 100%; pest or weed control at 250 g/ha (Avena fatua (AVEFA); post-emergence, 360 h, 250 g/ha, post-emergence, 15 DAA, visual assessment (100%=total damage, 0%=no damage), read-out: Post-emergence herbicidal activity (percentage phytotoxicity) AVEFA POST): 100%; pest or weed control at 250 g/ha (Avena fatua (AVEFA); pre-emergence, 480 h, 250 g/ha, pre-emergence, 20 DAA, visual assessment (100%=total damage, 0%=no damage), read-out: Pre-emergence herbicidal activity (percentage phytotoxicity) AVEFA PRE): 90%"
C/C=C/c1cc(C)c(C2C(=O)CC(CC(=O)NCc3cccc(F)c3)C2=O)c(CC)c1 (centres unmarked) [Compound B188],80%,60%,100%,80%,90%,80%,100%,40%,
